Legend:
[1] = test system: LPS-stimulated TNFα release from PBMCs; assay: LPS-stimulated PBMC TNFα release assay; format: cell-based; conditions: inhibition of TNFα release, human PBMCs, LPS 10 ng/ml, 18 h, ELISA, read-out: p38α inhibition (IC50 values)
Method: LPS-Stimulated PBMC TNFα Release Assay.
Peripheral Blood Mononuclear Cells (PBMCs) were isolated from healthy human volunteer blood using a standard density gradient centrifugation technique. Citrated blood was placed onto Histopaque™ and centrifuged. The PBMCs were removed from the density gradient interface and washed in phosphate buffered saline (PBS). The PBMCs were suspended in RPMI 1640 medium (without serum), dispensed into a 96-well plate and incubated at 37° C. for 3 h in a humidified incubator. After incubation, the medium was replaced (with medium containing 1% foetal bovine serum) and the plate incubated at 37° C., for 1 h, in the presence of test compound or the appropriate vehicle. LPS (10 ng/ml), or an appropriate vehicle control, was then added to the cells and the plate returned to the incubator for 18 h. Cell-free supernatants were removed and assayed for TNFα levels using an ELISA kit from R&D Systems.
A dose response curve to each test compound was performed and the effect of compound in each experiment was expressed as a percentage inhibition of the control TNFα release. Dose response curves were plotted and compound potency (IC50) was determined. Compounds were tested in at least three separate experiments.

p38alpha = target: T1, p38alpha (Homo sapiens, UniProt Q16539); assay: P38Alpha enzyme inhibition assay (Alphascreen kinase activity assay); format: biochemical; conditions: 100 pM p38alpha, 250 μM ATP, 2 hours pre-incubation at 25° C., read-out: p38α inhibition (IC50 values)
T1 construct: purchased Invitrogen PV3304
T1 sequence (Q16539 whole entry): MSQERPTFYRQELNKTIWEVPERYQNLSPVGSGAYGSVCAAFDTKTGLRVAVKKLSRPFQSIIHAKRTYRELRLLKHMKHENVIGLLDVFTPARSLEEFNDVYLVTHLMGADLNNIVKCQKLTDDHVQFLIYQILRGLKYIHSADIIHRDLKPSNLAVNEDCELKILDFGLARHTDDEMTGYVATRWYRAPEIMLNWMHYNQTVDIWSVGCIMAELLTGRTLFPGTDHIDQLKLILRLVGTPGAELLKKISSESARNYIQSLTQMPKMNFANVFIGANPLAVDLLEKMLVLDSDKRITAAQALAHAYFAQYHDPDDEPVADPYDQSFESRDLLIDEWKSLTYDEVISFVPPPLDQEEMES
How it was run: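 AlphaScreen read-out: after an EDTA stop, an anti-phospho-ATF2 antibody with Protein A acceptor and donor beads measured substrate phosphorylation. Compounds sat 2 h at 25°C with 100 pM p38α and 0.3 µg/ml ATF-2 fusion protein (pH 7.5, 1% DMSO) before 250 µM ATP was added for 1 h. IC50 from dose-response.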

Compound	IC50 (p38alpha) [nM]	IC50 [1] [nM]
Cc1ccc(-n2nc(C(C)(C)C)cc2NC(=O)N[C@H]2CC[C@@H](Oc3ccc4nnc(N5CC[C@@H](O)C5)n4c3)c3ccccc32)cc1 [Example 38, 1-(5-tert-Butyl-2-p-tolyl-2H-pyrazol-3-yl)-3-{(1S,4R)-4-[3-((R)-3-hydroxy-pyrrolidin-1-yl)-[1,2,4]triazolo[4,3-a]pyridin-6-yloxy]-1,2,3,4-tetrahydro-naphthalen-1-yl}-urea]	< 10	< 10
CC(C)(C)c1cc(NC(=O)N[C@H]2CC[C@@H](Oc3ccc4nnc(N5CCCCC5)n4c3)c3ccccc32)n(-c2cccc(OCCO)c2)n1 [Example 39, 1-{5-tert-Butyl-2-[3-(2-hydroxy-ethoxy)-phenyl]-2H-pyrazol-3-yl}-3-[(1S,4R)-4-(3-piperidin-1-yl-[1,2,4]triazolo[4,3-a]pyridin-6-yloxy)-1,2,3,4-tetrahydro-naphthalen-1-yl]-urea]	< 10	< 10
CN(C)CCOc1cccc(-n2nc(C(C)(C)C)cc2NC(=O)N[C@H]2CC[C@@H](Oc3ccc4nnc(N5CCCCC5)n4c3)c3ccccc32)c1 [Example 40, 1-{5-tert-Butyl-2-[3-(2-dimethylamino-ethoxy)-phenyl]-2H-pyrazol-3-yl}-3-[(1S,4R)-4-(3-piperidin-1-yl-[1,2,4]triazolo[4,3-a]pyridin-6-yloxy)-1,2,3,4-tetrahydro-naphthalen-1-yl]-urea]	< 10	< 10
CN1CCN(Cc2cccc(-n3nc(C(C)(C)C)cc3NC(=O)N[C@H]3CC[C@@H](Oc4ccc5nnc(N6CCCCC6)n5c4)c4ccccc43)c2)CC1 [Example 41, 1-{5-tert-Butyl-2-[3-(4-methyl-piperazin-1-ylmethyl)-phenyl]-2H-pyrazol-3-yl}-3-[(1S,4R)-4-(3-piperidin-1-yl-[1,2,4]triazolo[4,3-a]pyridin-6-yloxy)-1,2,3,4-tetrahydro-naphthalen-1-yl]-urea]	< 10	< 10
CN1CCC[C@H]1c1nnc2ccc(O[C@@H]3CC[C@H](NC(=O)Nc4cc(C(C)(C)C)nn4-c4cccc(OCCO)c4)c4ccccc43)cn12 [Example 42, 1-{5-tert-Butyl-2-[3-(2-hydroxy-ethoxy)-phenyl]-2H-pyrazol-3-yl}-3-{(1S,4R)-4-[3-((S)-1-methyl-pyrrolidin-2-yl)-[1,2,4]triazolo[4,3-a]pyridin-6-yloxy]-1,2,3,4-tetrahydro-naphthalen-1-yl}-urea]	< 10	< 10
Cc1ccc(-n2nc(C(C)(C)C)cc2NC(=O)N[C@H]2CC[C@@H](Oc3ccc4nnc(N(C)CCN(C)C)n4c3)c3ccccc32)cc1 [Example 43, 1-(5-tert-Butyl-2-p-tolyl-2H-pyrazol-3-yl)-3-((1S,4R)-4-{3-[(2-dimethylamino-ethyl)-methyl-amino]-[1,2,4]triazolo[4,3-a]pyridin-6-yloxy}-1,2,3,4-tetrahydro-naphthalen-1-yl)-urea]	< 10	< 10
CC(C)(C)c1cc(NC(=O)N[C@H]2CC[C@@H](Oc3ccc4nnc(N5CCCCC5)n4c3)c3ccccc32)n(-c2cccc(CN3CCCCC3)c2)n1 [Example 44, 1-[5-tert-Butyl-2-(3-piperidin-1-ylmethyl-phenyl)-2H-pyrazol-3-yl]-3-[(1S,4R)-4-(3-piperidin-1-yl-[1,2,4]triazolo[4,3-a]pyridin-6-yloxy)-1,2,3,4-tetrahydro-naphthalen-1-yl]-urea]	< 10	< 10
Cc1ccc(-n2nc(C(C)(C)C)cc2NC(=O)N[C@H]2CC[C@@H](Oc3ccc4nnc([C@]5(C)CCCN5C)n4c3)c3ccccc32)cc1 [Example 47, 1-(5-tert-Butyl-2-p-tolyl-2H-pyrazol-3-yl)-3-{(1S,4R)-4-[3-((S)-1,2-dimethyl-pyrrolidin-2-yl)-[1,2,4]triazolo[4,3-a]pyridin-6-yloxy]-1,2,3,4-tetrahydro-naphthalen-1-yl}-urea]	< 10	< 10
CC(C)(C)c1cc(NC(=O)N[C@H]2CC[C@@H](Oc3ccc4nnc(N5CCCCC5)n4c3)c3ccccc32)n(-c2cccc(COCCO)c2)n1 [Example 48, 1-{5-tert-Butyl-2-[3-(2-hydroxy-ethoxymethyl)-phenyl]-2H-pyrazol-3-yl}-3-[(1S,4R)-4-(3-piperidin-1-yl-[1,2,4]triazolo[4,3-a]pyridin-6-yloxy)-1,2,3,4-tetrahydro-naphthalen-1-yl]-urea]	< 10	< 10
Cc1ccc(-n2nc(C(C)(C)C)cc2NC(=O)N[C@H]2CC[C@@H](Oc3ccc4nnc(N5CCCOCC5)n4c3)c3ccccc32)cc1 [Example 49, 1-(5-tert-Butyl-2-p-tolyl-2H-pyrazol-3-yl)-3-[(1S,4R)-4-(3-[1,4]oxazepan-4-yl-[1,2,4]triazolo[4,3-a]pyridin-6-yloxy)-1,2,3,4-tetrahydro-naphthalen-1-yl]-urea]	< 10	< 10
CC(C)(C)c1cc(NC(=O)N[C@H]2CC[C@@H](Oc3ccc4nnc(N5CCCCC5)n4c3)c3ccccc32)n(-c2cccc(CN3CCN(CCO)CC3)c2)n1 [Example 50, 1-(5-tert-Butyl-2-{3-[4-(2-hydroxy-ethyl)-piperazin-1-ylmethyl]-phenyl}-2H-pyrazol-3-yl)-3-[(1S,4R)-4-(3-piperidin-1-yl-[1,2,4]triazolo[4,3-a]pyridin-6-yloxy)-1,2,3,4-tetrahydro-naphthalen-1-yl]-urea]	< 10	< 10

Now from value to molecule, other results behind:

IC50 (p38alpha) [nM]	Compound	IC50 [1] [nM]
< 10	CCOC(=O)c1cccc(-n2nc(C(C)(C)C)cc2NC(=O)N[C@H]2CC[C@@H](Oc3ccc4nnc([C@@H]5CCCN5C)n4c3)c3ccccc32)c1 [Example 30, 3-[3-tert-Butyl-5-(3-{(1S,4R)-4-[3-((S)-1-methyl-pyrrolidin-2-yl)-[1,2,4]triazolo[4,3-a]pyridin-6-yloxy]-1,2,3,4-tetrahydro-naphthalen-1-yl}-ureido)-pyrazol-1-yl]-benzoic acid ethyl ester]	< 10
< 10	CN1CCC[C@H]1c1nnc2ccc(O[C@@H]3CC[C@H](NC(=O)Nc4cc(C(C)(C)C)nn4-c4cccc(CO)c4)c4ccccc43)cn12 [Example 31, 1-[5-tert-Butyl-2-(3-hydroxymethyl-phenyl)-2H-pyrazol-3-yl]-3-{(1S,4R)-4-[3-((S)-1-methyl-pyrrolidin-2-yl)-[1,2,4]triazolo[4,3-a]pyridin-6-yloxy]-1,2,3,4-tetrahydro-naphthalen-1-yl}-urea]	< 10
< 10	CN1CCC[C@H]1c1nnc2ccc(O[C@@H]3CC[C@H](NC(=O)Nc4cc(C(C)(C)C)nn4-c4ccc(CO)cc4)c4ccccc43)cn12 [Example 33, 1-[5-tert-Butyl-2-(4-hydroxymethyl-phenyl)-2H-pyrazol-3-yl]-3-{(1S,4R)-4-[3-((S)-1-methyl-pyrrolidin-2-yl)-[1,2,4]triazolo[4,3-a]pyridin-6-yloxy]-1,2,3,4-tetrahydro-naphthalen-1-yl}urea]	< 10
< 10	CC(C)(C)c1cc(NC(=O)N[C@H]2CC[C@@H](Oc3ccc4nnc(N5CCCCC5)n4c3)c3ccccc32)n(-c2ccc(CO)cc2)n1 [Example 34, 1-[5-tert-Butyl-2-(4-hydroxymethyl-phenyl)-2H-pyrazol-3-yl]-3-[(1S,4R)-4-(3-piperidin-1-yl-[1,2,4]triazolo[4,3-a]pyridin-6-yloxy)-1,2,3,4-tetrahydro-naphthalen-1-yl]-urea]	< 10
< 10	CN1CCC[C@H]1c1nnc2ccc(O[C@@H]3CC[C@H](NC(=O)Nc4cc(C(C)(C)C)nn4-c4cccc(SCCO)c4)c4ccccc43)cn12 [Example 35, 1-{5-tert-Butyl-2-[3-(2-hydroxy-ethylsulfanyl)-phenyl]-2H-pyrazol-3-yl}-3-{(1S,4R)-4-[3-((S)-1-methyl-pyrrolidin-2-yl)-[1,2,4]triazolo[4,3-a]pyridin-6-yloxy]-1,2,3,4-tetrahydro-naphthalen-1-yl}-urea]	< 10
< 10	Cc1ccc(-n2nc(C(C)(C)CO)cc2NC(=O)N[C@H]2CC[C@@H](Oc3ccc4nnc(N5CCCCC5)n4c3)c3ccccc32)cc1 [Example 36, 1-[5-(2-Hydroxy-1,1-dimethyl-ethyl)-2-p-tolyl-2H-pyrazol-3-yl]-3-[(1S,4R)-4-(3-piperidin-1-yl-[1,2,4]triazolo[4,3-a]pyridin-6-yloxy)-1,2,3,4-tetrahydro-naphthalen-1-yl]-urea]	< 10
< 10	CN1CCC[C@H]1c1nnc2ccc(O[C@H]3C[C@H](NC(=O)Nc4cc(C(C)(C)C)nn4-c4ccc(CO)cc4)c4ccccc43)cn12 [Example 37, 1-[5-tert-Butyl-2-(4-hydroxymethyl-phenyl)-2H-pyrazol-3-yl]-3-{(1S,3S)-3-[3-((S)-1-methyl-pyrrolidin-2-yl)-[1,2,4]triazolo[4,3-a]pyridin-6-yloxy]-indan-1-yl}-urea]	< 10

From patent US9315503B2, “Kinase inhibitors” (CHIESI FARMACEUTICI S.p.A., priority 2011, dated 2016)
